Measurements taken from patent US20100330028A1, “COMBINATION THERAPY FOR CHRONIC DERMAL ULCERS” (The Board of Regents THe Universityof Texas System, priority 2007, published 2010).
Each block holds one substance with its values, some of them ahead of it.

What was measured:
[1] = test system: Human coronary artery endothelial (HCAE) cells; assay: Invasion of HCAE cells through Matrigel toward PDGF; format: cell-based; details: PDGF 10 ng/ml, 22 h
Description: (§1) The design of experiments to measure invasion and migration of endothelial cells toward the angiogenic factor PDGF (platelet-derived growth factor-BB) is shown in FIGS. 7A and 8A respectively. The standard assay used 5×10^4 cells added to the top of the insert in 250 μl of medium. The lower portion of the apparatus contained 750 μl of medium, plus or minus PDGF. […] Transmembrane cell invasion and migration assays were performed using BD FluoroBlok inserts coated with BD Matrigel Matrix (a biologically active basement membrane preparation) or with fibronectin (BD Bioscience, Bedford, Mass.), respectively. […] PDGF [10 ng/ml] (R&D System, Minneapolis, Minn. (PDGF) or medium alone (CTR) were added to the lower chamber of the insert plate as a chemoattractant. The cells were allowed to invade or migrate for 22 hours. Cells were labeled post invasion or post migration with Calcein AM (4 μg/ml) and the fluorescence of the cells that invaded through the BD Matrigel Matrix or migrated to the underside of the insert membrane was measured using a plate reader at 485 nm (excitation) and 530 nm (emission).

[2] = test system: Human coronary artery endothelial (HCAE) cells; assay: Migration of HCAE cells through fibronectin-coated insert toward PDGF; format: cell-based; details: PDGF 10 ng/ml, 22 h
Description: as §1

[3] = test system: Human coronary artery endothelial (HCAE) cells; assay: Invasion of HCAE cells through Matrigel toward bFGF; format: cell-based; details: bFGF 10 ng/ml, 22 h
Description: (§2) The design of experiments to measure invasion and migration of endothelial cells toward the angiogenic factor bFGF (basic fibroblast growth factor) is shown in FIGS. 5A and 6A, respectively. The standard assay used 5×10^4 cells added to the top of the insert in 250 μl of medium. The lower portion of the apparatus contained 750 μl of medium, plus or minus bFGF. […] Transmembrane cell invasion and migration assays were performed using BD FluoroBlok (BD Bioscience, Bedford, Mass.) inserts coated with BD Matrigel Matrix (a biologically active basement membrane preparation) or with fibronectin, respectively. […] (R&D System, Minneapolis, Minn.) (FGF) or medium alone (CTR) were added to the lower chamber of the insert plate as a chemoattractant. The cells were allowed to invade or migrate for 22 hours. Cells were labeled post invasion or post migration with Calcein AM (4 μg/ml) and the fluorescence of the cells that invaded through the BD Matrigel Matrix or migrated to the underside of the insert membrane was measured using a plate reader at 485 nm (excitation) and 530 nm (emission).

[4] = test system: Human coronary artery endothelial (HCAE) cells; assay: Migration of HCAE cells through fibronectin-coated insert toward bFGF; format: cell-based; details: bFGF 10 ng/ml, 22 h
Description: as §2

thrombin receptor [5] = details: cited from earlier work
thrombin receptor [6] = details: cited from earlier work; remark: listed apart in the source
AC-23 = assay: Binding of biotin-conjugated thrombin to complementary peptide AC-23
AC-23, sequence (as listed by the source): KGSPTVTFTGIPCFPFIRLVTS

23C53 = assay: Binding of biotin-conjugated thrombin to complementary peptide 23C53
23C53, sequence (as listed by the source): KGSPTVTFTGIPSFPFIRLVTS

Substance: PDGF
Effect of PDGF on endothelial cell invasion compared to control medium without PDGF [1]: no effect | Effect of PDGF on endothelial cell migration compared to control (CTR) [2]: no effect

Substance: bFGF: angiogenic factor basic fibroblast growth factor (R&D System)
bFGF-induced endothelial cell invasion as % of invasion with control medium (CTR) [3]: ~170% | Increase of endothelial cell migration by bFGF compared to control medium not containing bFGF [4]: ~40%

Substance: p508-530: stimulatory thrombin polypeptide derivative containing fibronectin- and serine protease-homologous domains, residues 508 to 530 of human thrombin
Binding to thrombin receptors (thrombin receptor [5]): bind to thrombin receptors with high-affinity | Induction of mitogenesis / mitogenic signals (thrombin receptor [6]): substitute for DIP-alpha-thrombin as an initiator of receptor occupancy-related mitogenic signals

Substance: p519-530: intermediate thrombin peptide derivative, residues 519-530 of human thrombin (QPSVLQVVNLPI; UniProt P00734 519-530, looked up, fragment)
Induction of mitogenesis / mitogenic signals (thrombin receptor [6]): retains the ability to mediate mitogenesis but to a much lesser degree than p508-530

Specific binding of biotin-conjugated thrombin to AC23 (AC-23): bind specifically | Specific binding of biotin-conjugated thrombin to 23C53 (23C53): bind specifically
Substance: thrombin
